In patent US20260231968A1, “AN ECO-FRIENDLY, SUSTAINABLE FOOD PRESERVATIVE” (priority 2023, published 2026):

Key:
Aspergillus flavus = test: Microbial Growth Inhibition Test, broth microdilution optical method; format: cell-based; conditions: 12 μM
Procedure: The IC90 of psoriasin for several microorganisms was determined by Microbial Growth Inhibition Tests. The tests were performed using the Broth Microdilution Optical Method based on standardized protocols M27 (yeasts) and M38 (filamentous fungi) of the Clinical and Laboratory Standards Institute. […] MOPS, LB (Luria-Bertani), and TSB ([…]) medium types were used, depending on the species being tested. The absorbance was calibrated to each species, and was measured between 450 nm to 650 nm.
In addition, ethyl lauroyl arginate (LAE), a commercially available food preservative, was tested in similar growth conditions as a reference.

[1] = system: initial microbial load of plant-based meat substitute; test: Microbial load of plant-based meat substitute during storage; format: cell-based
Procedure: The ability of psoriasin to extend the shelf life of a plant-based meat substitute was examined under standard storage conditions. Three groups, each stored as an open package at […], were assessed over the course of 16 days. The groups included i) an untreated control, ii) a nisin-treated sample, and iii) a psoriasin-treated sample at 0.65%. A single source of the plant-based meat substitute was used and each group was reproduced in triplicate. The microbial load of the plant-based meat substitute samples was based on the initial microbial load without the addition of antibiotics and without the addition of mold, yeast or bacteria. Samples from each group were taken on days 1, 3, 5, 10, 11 and 16 and total CFU count was determined by plating on LB and PDA agar petri dishes.

C. albicans = C. albicans growth in RPMI-MOPS with S100a12; format: cell-based, Candida albicans; conditions: 30° C, approximately 19 hours
Procedure: C. albicans cells in RPMI-MOPS were incubated in a 96-well plate at 30° C. with S100a12 at concentrations of 0.32, 2.5, 5 and 20 μM (FIG. 11). Optical density was measured every 10 minutes by absorbance at 600 nm over the course of approximately 19 hours.

E. coli BL21 cells = test: E. coli growth in LB with S100a8 / S100a9; format: cell-based; conditions: 37° C; for inhibition of E. coli growth: 0.18 μM to 50 μM
Procedure: E. coli cells in LB media were incubated in a 96-well plate at 37° C. with S100a8 (FIG. 10A) or S100a9 (FIG. 10B) at concentrations varying from 0.18 μM to 50 μM. Optical density was measured every 10 minutes by absorbance at 600 nm over the course of approximately 19 hours. […] In addition, the same experiment was performed using varying equimolar concentrations of S100a8 and S100a9 that were pre-incubated for two hours at 4° C. under constant shaking.

CCCCCCCCCCCC(=O)N[C@@H](CCCN=C(N)N)C(=O)OCC [LAE, ethyl lauroyl arginate, reference compound]
inhibition of A. flavus growth (Aspergillus flavus): approximately 40%

nisin [reference compound]
Yeast & Mold Count ([1]; Day 1): 2 × 10^2 | Total CFU count ([1]; Day 1, open package, psoriasin 0.65%): 1.2 × 10^4 CFU | Total CFU count ([1]; Day 3): 1.2 × 10^4 CFU | Yeast & Mold Count ([1]; Day 3): 2 × 10^2 | Total CFU count ([1]; Day 5): 5 × 10^4 CFU | Yeast & Mold Count ([1]; Day 5): 1.4 × 10^3 | Total CFU count ([1]; Day 10): 1.8 × 10^8 CFU | Yeast & Mold Count ([1]; Day 10): 1.47 × 10^4 | Total CFU count ([1]; Day 11): 2.35 × 10^8 CFU | Yeast & Mold Count ([1]; Day 11): 1.46 × 10^4 | Total CFU count ([1]; Day 16): 1.28 × 10^10 CFU | Yeast & Mold Count ([1]; Day 16): 3.2 × 10^4

B1: S100a12: S100 protein; human S100a12 sequence SEQ ID NO: 6 (protein, listed as Homo sapiens)
chain: MTKLEEHLEGIVNIFHQYSVRKGHFDTLSKGELKQLLTKELANTIKNIKDKAVIDEIFQGLDANQDEQVDFQEFISLVAIALKAAHYHTHKE
concentration with significant inhibition of C. albicans growth (C. albicans): ≥ 0.32 µM

B2: S100a9: Recombinant S100 protein; human S100a9 sequence SEQ ID NO: 4 (protein, listed as Homo sapiens)
chain: MTCKMSQLERNIETIINTFHQYSVKLGHPDTLNQGEFKELVRKDLQNFLKKENKNEKVIEHIMEDLDTNADKQLSFEEFIMLMARLTWASHEKMHEGDEGPGHHHKPGLGEGTP
inhibition of E. coli growth (E. coli BL21 cells): Inhibit Growth of E. coli BL21 Cells

B3: S100a8: Recombinant S100 protein; human S100a8 sequence SEQ ID NO: 3 (protein, listed as Homo sapiens)
chain: MLTELEKALNSIIDVYHKYSLIKGNFHAVYRDDLKKLLETECPQYIRKKGADVWFKELDINTDGAVNFQEFLILVIKMGVAAHKKSHEESHKE
inhibition of E. coli growth (E. coli BL21 cells): Inhibit Growth of E. coli BL21 Cells | concentration giving full inhibition of E. coli growth (E. coli BL21 cells; approximately 19 hours, OD 600 nm): ≤ 1.5 µM
